ChEMBL document CHEMBL3217470, “Binding free energy calculations and biological testing of novel thiobarbiturates as inhibitors of the human NAD+dependent histone deacetylase Sirt2” (Medchemcomm, 2012)

biological target: T1, NAD-dependent protein deacetylase sirtuin-2 (Homo sapiens, UniProt Q8IXJ6); assay: Inhibition of human recombinant Sirt2 using ZMAL as substrate after 4 hrs by fluorescent deacetylase assay; conditions: read-out: IC50
T1 sequence (Q8IXJ6 whole entry): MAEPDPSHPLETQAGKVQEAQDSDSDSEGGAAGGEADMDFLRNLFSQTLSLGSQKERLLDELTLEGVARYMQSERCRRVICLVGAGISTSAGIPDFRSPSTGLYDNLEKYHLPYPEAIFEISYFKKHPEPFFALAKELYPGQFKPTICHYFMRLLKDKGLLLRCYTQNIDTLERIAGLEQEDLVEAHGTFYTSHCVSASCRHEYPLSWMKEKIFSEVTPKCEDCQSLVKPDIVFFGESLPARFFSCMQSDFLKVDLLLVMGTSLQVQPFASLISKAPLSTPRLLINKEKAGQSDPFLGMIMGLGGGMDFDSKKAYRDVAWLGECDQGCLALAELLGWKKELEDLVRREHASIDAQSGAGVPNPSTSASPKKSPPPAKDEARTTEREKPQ

In order of falling IC50:
1. O=C1NC(=S)NC(=O)C1=Cc1ccc(-c2ccc(Cl)cc2)o1  6.5 µM
2. COc1ccc(CC2C(=O)NC(=S)NC2=O)cc1OCc1ccccc1  5.8 µM
3. CC(C)Oc1ccc(C=C2C(=O)NC(=S)NC2=O)cc1  5.8 µM
4. COC(=O)c1ccc(-c2ccc(C=C3C(=O)NC(=S)NC3=O)o2)cc1  5.7 µM
5. CC(=O)c1ccc(-c2ccc(C=C3C(=O)NC(=S)NC3=O)o2)cc1  5.5 µM
6. CCOc1ccc(C=C2C(=O)NC(=S)NC2=O)cc1CCc1ccccc1  4.9 µM
7. O=C1NC(=S)NC(=O)C1=Cc1ccc(OCc2ccccc2)c(OCc2ccccc2)c1  3.9 µM
8. O=C1NC(=S)NC(=O)C1=Cc1cn(-c2ccccc2)nc1-c1ccc(Cl)cc1  3.8 µM
9. O=C1NC(=S)NC(=O)C1=Cc1ccc(Sc2ccccc2)o1  3.5 µM
10. C=CCN1C(=O)/C(=C/c2ccc(-c3cccc(Cl)c3Cl)o2)C(=O)NC1=S  2.8 µM
11. O=C1NC(=S)NC(=O)C1=Cc1ccc(OCc2cccc3ccccc23)cc1  2.6 µM
12. O=C1NC(=S)NC(=O)C1=Cc1ccc(-c2ccc(C(=O)OCc3cccc(Cl)c3)cc2)o1  2.2 µM
13. O=C1NC(=S)NC(=O)C1=Cc1cc(OCc2ccc(Br)cc2)ccc1Cl  1.8 µM
14. O=C1NC(=S)NC(=O)C1=Cc1ccc(-c2ccc(Cl)c(Cl)c2)o1  1.5 µM

same assay, conditions: read-out: pIC50 (converted)

In order of falling IC50:
1. O=C1NC(=S)NC(=O)C1=Cc1ccc(-c2ccc(C(=O)OCc3cccc(Cl)c3)cc2)o1  6.46 µM
2. O=C1NC(=S)NC(=O)C1=Cc1ccc(-c2ccc(Cl)cc2)o1  2.19 µM
